The values that follow come from ChEMBL document CHEMBL5247585, “Design, synthesis, and evaluation of 4(1H)-quinolinone and urea derivatives as KRASG12C inhibitors with potent antitumor activity against KRAS-mutant non-small cell lung cancer” (Eur J Med Chem, 2022).

One data set concerns NCI-H23. Kind of data set: Antiproliferative activity against human NCI-H23 cells harboring KRAS G12C mutant assessed as reduction in cell viability incubated for 72 hrs by MTT assay. To be noted: NCI-H23, 72 h. Format: functional, cell-based. For orientation: Formazan colour is commonly taken as a measure of viable cells.
Data set [1] in a line: Selectivity index, ratio of IC50 for human A549 cells harboring KRAS G12S mutant to IC50 for human NCI-H23 cells harboring KRAS G12C mutant. Format: functional.
A further data set concerns A549. Kind of data set: Antiproliferative activity against human A549 cells harboring KRAS G12S mutant assessed as reduction in cell viability incubated for 72 hrs by MTT assay. Format: functional, cell-based. The conditions noted are these: A549, 72 h.
Data set [2] is described as follows: Selectivity index, ratio of IC50 for human NCI-H2228 cells harboring wild type KRAS to IC50 for human NCI-H358 cells harboring KRAS G12C mutant. The format is functional.
The nature of data set [3]: Selectivity index, ratio of IC50 for human A549 cells harboring KRAS G12S mutant to IC50 for human NCI-H358 cells harboring KRAS G12C mutant. The format is functional.
Data set [4] relates to NCI-H358. In words: Antiproliferative activity against human NCI-H358 cells harboring KRAS G12C mutant assessed as reduction in cell viability incubated for 72 hrs by MTT assay. Format: functional, cell-based. The conditions noted are these: NCI-H358, 72 h.
The nature of data set [5]: Selectivity index, ratio of IC50 for human NCI-H2228 cells harboring wild type KRAS to IC50 for human NCI-H23 cells harboring KRAS G12C mutant. Format: functional.
For another data set, the system named is NCI-H2228. In words: Antiproliferative activity against human NCI-H2228 cells harboring wild type KRAS assessed as reduction in cell viability incubated for 72 hrs by MTT assay. The conditions noted are these: NCI-H2228, 72 h. Format: functional, cell-based.
Data set [6] concerns GTPase KRas (Homo sapiens), P01116 [G12C]. Kind of data set: Covalent binding affinity to 6His tagged GDP bound human KRAS G12C mutant (1 to 169 residues) expressed in Escherichia coli BL21 (DE3) cells at 200 uM incubated for 24 hrs by LC-MS /MS analysis.
The test system is the same in data set [7]. In words: Inhibition of 6His tagged Mant-GDP loaded human KRAS G12C mutant (1 to 169 residues) expressed in Escherichia coli BL21 (DE3) cells assessed as inhibition of SOS1-mediated nucleotide exchange at 10 uM preincubated with compound for 1 hrs followed by addition of GTP and SOS1 protein and measured every 90 sec for 2 hrs by fluorescence based assay. To be noted: time 3.0 hrs.

Data set [8] has the same test system. Kind of data set: Inhibition of 6His tagged Mant-GDP loaded human KRAS G12C mutant (1 to 169 residues) expressed in Escherichia coli BL21 (DE3) cells assessed as inhibition of […] nucleotide exchange at 10 uM preincubated with compound for 1 hrs followed by addition of GTP and EDTA and measured every 90 sec for 2 hrs by fluorescence based assay. The conditions noted are these: time 3.0 hrs.

The target in data set [9] is GTPase KRas (Homo sapiens) (UniProt P01116). In words: Covalent binding affinity to 6his tagged GDP bound human wildtype KRAS expressed in Escherichia coli BL21 (DE3) cells at 200 uM incubated for 24 hrs by LC-MS/MS analysis.
Data set [10] can be described thus: Cytotoxicity against human MRC5 cells assessed as reduction in cell viability incubated for 72 hrs by MTT assay. The format is toxicity, cell-based.
A further data set has as its system SK-LU-1. Kind of data set: Antiproliferative activity against human SK-LU-1 cells harboring KRAS G12D mutant assessed as reduction in cell viability incubated for 72 hrs by MTT assay. The format is functional, cell-based. The conditions noted are these: SK-LU-1, 72 h.
For a further data set, the system named is NCI-H441. Kind of data set: Antiproliferative activity against human NCI-H441 cells harboring KRAS G12V mutant assessed as reduction in cell viability incubated for 72 hrs by MTT assay. Format: functional, cell-based. The conditions noted are these: NCI-H441, 72 h.
Data set [11] can be described thus: Selectivity index, ratio of IC50 for human MRC5 cells to IC50 for human NCI-H358 cells harboring KRAS G12C mutant.
The test system of data set [12] is NCI-H358. In words: Antitumor activity against human NCI-H358 cells harboring KRAS G12C mutant xenografted in BALB/c mouse assessed as tumor growth inhibition at 15 mg/kg, ip administered for 21 days. The format is functional. To be noted: NCI-H358, 504 h, time 21 day, read-out: TGI.
Data set [13] has as its system NCI-H358. Kind of data set: Inhibition of KRAS signaling in human NCI-H358 cells harboring KRAS G12C mutant assessed as decrease in AKT phosphorylation level at 0.5 to 8 uM incubated for 6 hrs by Western blot analysis relative to control. The format is cell-based. The conditions noted are these: dose 0.5-8 µM. A general note: Immunoblotting shows a protein as a band on a membrane.

Data set [14] can be described thus: Toxicity in BALB/c mouse xenografted with human NCI-H358 cells harboring KRAS G12C mutant assessed as effect on body weight at 10 to 15 mg/kg, ip administered for 21 days. The format is organism-based. To be noted: in vivo, 504 h, dose 10-15 mg/kg, time 21 day.
Data set [15] deals with NCI-H358. In words: Antitumor activity against human NCI-H358 cells harboring KRAS G12C mutant xenografted in BALB/c mouse assessed as tumor growth inhibition at 10 mg/kg, ip administered for 21 days. The format is functional, organism-based. The conditions noted are these: time 21.0 day. A general note: A xenograft is tissue or cells of one species grown in another, often human tumour cells in immunodeficient mice.

Data set [16] relates to NCI-H358. In words: Induction of apoptosis in human NCI-H358 cells assessed as fold change in cleaved caspase-3 level at 0.5 to 8 uM incubated for 6 hrs by Western blot analysis. The conditions noted are these: dose 0.5-8 µM. Format: functional.
The target of data set [17] is GTPase KRas (Homo sapiens) (UniProt P01116). In words: Inhibition of KRAS signaling in human NCI-H2228 cells harboring wildtype KRAS at 0.5 to 8 uM incubated for 6 hrs by Western blot analysis. Format: cell-based. The conditions noted are these: dose 0.5-8 µM.
Data set [18] relates to GTPase KRas (Homo sapiens), P01116 [G12C]. In words: In vivo inhibition of KRAS signaling in BALB/C mouse xenografted with human NCI-H358 cells harboring KRAS G12C mutant assessed as decrease in ERK phosphorylation in tumor at 10 to 15 mg/kg, ip administered for 21 days by IHC staining based analysis. Format: functional, organism-based. The conditions noted are these: dose 10-15 mg/kg, time 21.0 day.

Data set [19] concerns NCI-H358. In words: Antitumor activity against human NCI-H358 cells harboring KRAS G12C mutant xenografted in BALB/c mouse assessed as increase in cleaved caspase-3 level at 10 to 15 mg/kg, ip administered for 21 days by IHC staining analysis. To be noted: dose 10-15 mg/kg, time 21.0 day. The format is functional, organism-based.
Data set [20] deals with NCI-H358. In words: Inhibition of KRAS signaling in human NCI-H358 cells harboring KRAS G12C mutant assessed as decrease in ERK phosphorylation level at 0.5 to 8 uM incubated for 6 hrs by Western blot analysis relative to control. Format: cell-based. To be noted: dose 0.5-8 µM.
Data set [21] has as its system NCI-H358. In words: Antitumor activity against human NCI-H358 cells harboring KRAS G12C mutant xenografted in BALB/c mouse assessed as reduction in tumor growth at 10 to 15 mg/kg, ip administered for 21 days by Ki67 staining based analysis. To be noted: dose 10-15 mg/kg, time 21.0 day. Format: functional, organism-based.

By IC50 is commonly meant the concentration that gives 50% inhibition. For orientation: inhibition means the drop in the measured response relative to a control, in per cent.

Calls of active or inactive are those of the source. The calls are words filed in the database; no cut-off is given here.

For `O=C(Nc1ccc(Cl)c(C(F)(F)F)c1)N[C@H]1CCN(C(=O)CCl)C1`, the IC50 is 1.5 µM in the data set on NCI-H23, 11.3 µM with A549, 2.4 µM in the data set with NCI-H358 [4] and 7.3 µM in the data set on NCI-H2228. In addition, the “Ratio IC50” value in data set [1], in [2], in data set [3] and in data set [5] was 3 in each case.
Turning to `O=C(Nc1ccc(Cl)c(C(F)(F)F)c1)NC1CCN(C(=O)CCl)CC1`, the IC50 was determined as 2.3 µM in the data set on NCI-H23, 8 µM with A549, 3.1 µM with NCI-H358 [4] and 10.6 µM with NCI-H2228. Further, the result in [6] was Active. For the same compound, the inhibition entry in data set [7] was “Active”. Further, the inhibition result in [8] was “inactive”. The result in [9] was inactive.
With `O=C(CCl)NC1CCN(C(=O)c2cc(=O)c3cc(Cl)c(I)cc3[nH]2)CC1`, the IC50 was 2.7 µM in the data set with NCI-H23, 9.8 µM in the data set on A549, 4.5 µM with NCI-H358 [4] and 8.6 µM in the data set on NCI-H2228. The “Ratio IC50” value in data set [1], in data set [2], in data set [3] and in data set [5] was 2 throughout.
Regarding `C=CS(=O)(=O)NC1CCN(C(=O)CNc2cc(I)c(Cl)cc2OC)CC1`, the IC50 with NCI-H23 was found to be 3 µM; in the data set with A549 it was 5.2 µM; in the data set on NCI-H358 [4], 4.4 µM; in the data set with SK-LU-1, 22.8 µM; in the data set on NCI-H441 it was 21.5 µM; with NCI-H2228, 7.2 µM. Moreover, in [10], the IC50 at 72 h turned out to be 10.3 µM.
Consider `C=CS(=O)(=O)NC1CCN(C(=O)c2cc(=O)c3cc(Cl)c(I)cc3[nH]2)CC1`, for which the IC50 in the data set on NCI-H23 was found to be 6.4 µM; in the data set on A549, 11.9 µM; with NCI-H358 [4] it was 9.1 µM; in the data set on NCI-H2228, 19.4 µM. Also, the “Ratio IC50” value in [1], in data set [2], in data set [3] and in [5] was 2 each time.
For `O=C(Nc1ccc(Cl)cc1)NC1CCN(C(=O)CCl)CC1`, the IC50 in the data set with NCI-H23 came out at 5.1 µM; in the data set on A549, 17.5 µM; with NCI-H358 [4] it was 3.8 µM; with NCI-H2228, 14.1 µM. In addition, the “Ratio IC50” value in data set [1], in [2], in data set [3] and in data set [5] was 3 each time. Further, the result in data set [6] was Active. The inhibition result in data set [7] was “Active”. Moreover, the inhibition result in data set [8] is “inactive”. The outcome in data set [9] was inactive.
Turning to `O=C(CCl)N1CCN(C(=O)Nc2ccc(Cl)c(-c3ccccc3F)c2)CC1`, the IC50 in the data set on NCI-H23 is 1.3 µM; in the data set with A549, 9.3 µM; in the data set on NCI-H358 [4], 0.5 µM; with SK-LU-1 it was 4.6 µM; with NCI-H441, 4.4 µM; in the data set on NCI-H2228, 11.6 µM. Also, the “Ratio IC50” value in data set [1] was found to be 7; in data set [11], 12; in data set [2], 7; in data set [3], 7; in data set [5] it was 7. For the same compound, in the data set with NCI-H358 [12], the inhibition in vivo at 15 mg/kg was found to be 50%. Besides, the inhibition in the data set with NCI-H358 [13] came to 30%; in the data set on NCI-H358 [20] it was 40%. Besides, in data set [14], the Activity result is “Non-Toxic”. For the same compound, the TGI result with NCI-H358 [15] is “Active”. Further, the “fold change (FC)” value in the data set on NCI-H358 [16] is given as 2. Also, the inhibition result in [17] and in [8] was “inactive” each time. For the same compound, in data set [10], the half-maximal inhibitory concentration (IC50) at 72 h is 6.1 µM. The result (in data set [6]; in the data set on NCI-H358 [19]; in the data set on NCI-H358 [21]) was Active. Also, the inhibition result in data set [18] and in [7] was “Active” throughout. Also, in data set [9], the outcome was inactive.
Turning to `C=CC(=O)NC1CCN(C(=O)c2cc(=O)c3cc(Cl)c(I)cc3[nH]2)CC1`, the IC50 in the data set with NCI-H23 was determined as 35.5 µM; with A549, 22.8 µM; in the data set with NCI-H358 [4], 19.2 µM; with NCI-H2228, 31.6 µM.
Turning to `C=CC(=O)N1CCC(NC(=O)Nc2ccc(Cl)c(Cl)c2)CC1`, the IC50 was more than 100 µM in the data set with NCI-H23, more than 100 µM in the data set on A549, more than 100 µM in the data set with NCI-H358 [4] and 53.2 µM with NCI-H2228.
With `O=C(Nc1ccc(Cl)c(C(F)(F)F)c1)N[C@@H]1CCN(C(=O)CCl)C1`, the IC50 amounted to 4.6 µM with NCI-H23, 26.1 µM with A549, 4.5 µM with NCI-H358 [4] and 4 µM in the data set with NCI-H2228.
For the compound `O=C(CCl)N1CCN(C(=O)Nc2ccc(Cl)c(C(F)(F)F)c2)CC1`, the IC50 was 9.2 µM in the data set with NCI-H23, 1.5 µM with A549, 4.6 µM in the data set with NCI-H358 [4] and 0.6 µM with NCI-H2228.
Turning to `O=C(Nc1ccc(Cl)c(Cl)c1)NC1CCN(C(=O)CCl)CC1`, the IC50 in the data set on NCI-H23 came to 4.8 µM; with A549, 7.4 µM; with NCI-H358 [4] it was 5.5 µM; with NCI-H2228, 9.2 µM.
